{"source": "PubChem BioAssay AID743034", "about": "(The Scripps Research Institute Molecular Screening Center, 2013)", "key": {"[1]": {"tested_on": "Pooled human microsomes", "test": "liver microsomal half-life of V1a-R antagonists, late-stage follow-up, ADME assay for V1a-R antagonist project, biochemical, LC-MS/MS, human and mouse microsomes, powder samples (AID 743034)", "settings": "at 1 µM, hits give high values"}, "[2]": {"tested_on": "Pooled mouse microsomes", "test": "liver microsomal half-life of V1a-R antagonists, late-stage follow-up, ADME assay for V1a-R antagonist project, biochemical, LC-MS/MS, human and mouse microsomes, powder samples (AID 743034)", "settings": "at 1 µM, hits give high values"}}, "note": "The source made the active and inactive calls.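 The calls were made as follows: active = half-life above 60 minutes with both human and mouse liver microsomes; inactive = half-life below 60 minutes in both species.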", "data": [{"smiles": "O=C(C1CCN(c2ccc(Cl)cn2)CC1)N(CC1CC1)c1ccc(Cl)cc1", "values": [{"measurement": "half-life", "setting": "[1]", "value": "23.8 min (inactive)"}, {"measurement": "half-life", "setting": "[2]", "value": "7.8 min (inactive)"}]}]}
